According to patent US20240376094A2, “SELECTIVE BCL-XL PROTAC COMPOUNDS AND METHODS OF USE” (Les Laboratoires Servier, priority 2021, published 2024):

Columns and labels:
Format in all cases: cell-based
[1] = tested on: COR-L105; test: CellTiter-Glo proliferation assay, COR-L105; details: Homo sapiens, COR-L105, 120 h, COR-L105, 5 days; for Emax: read-out: COR-L105 Span (max)
Method in brief: (§1)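 Both lines grown in RPMI-1640 + 10% FBS. COR-L105 plated flat at 1,000 cells/well overnight; NCI-H1650 grown as spheroids, 3,000 cells/well, 72 h. Compounds at 0.508 nM-10 μM final for 5 days, 37° C. ATP read by CellTiter-Glo (3D version for spheroids); IC50 from variable-slope fit normalized to untreated cells.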

[2] = tested on: NCI-H1650; test: CellTiter-Glo 3D proliferation assay, NCI-H1650 spheroids; details: Homo sapiens, NCI-H1650, 120 h, 5 days; for Emax: read-out: NCI-H1650 Span (Amax)
Method in brief: as §1

[3] = target: T1, endogenous BCL-xL (Homo sapiens, UniProt Q07817); test: Degradation of endogenous BCL-xL in COR-L105 (ProteinSimple Jess); details: COR-L105, 24 h, COR-L105, dose 300 nM, read-out: % BCL-xL vs. Untreated, COR-L105
T1 construct: endogenous in cells; host or cells: COR-L105 (ECACC No. 92031918); NCI-H1650 (ATCC No. CRL-5883)
Experimental: The BCL-xL degrader low molecular weight compounds were tested against two endogenous cancer cell lines: • COR-L105: ECACC No. 92031918 cultured in RPMI-1640+10% FBS • NCI-H1650: (ATCC No. CRL-5883 cultured in RPMI-1640+10% FBS
The ability of the BCL-xL degrader low molecular weight compounds to degrade endogenous BCL-xL was assessed using the ProteinSimple 2-40 kDa Jess Separation Module.
Cell lines were cultured in media that is optimal for their growth at 5% CO2, 37° C. in a tissue culture incubator. Prior to seeding for the degradation assay, the cells were split at least 2 days before the assay to ensure optimal growth density. On the day of seeding, adherent cells were lifted off tissue culture flasks using 0.25% trypsin. Cell viability and cell density were determined using a cell counter (Vi-Cell XR Cell Viability Analyzer, Beckman Coulter). Cells with higher than 85% viability were seeded for the assay.
The COR-L105 and the NCI-H1650 cell line were seeded in 6-well clear TC-treated multiple well plates (Costar® cat. #3516). Cells were seeded at a density of 2,000,000 cells per well in 2.5 mL of standard growth media. Plates were incubated at 5% CO2, 37° C. overnight in a tissue culture incubator. On the day of dosing, BCL-xL degrader low molecular weight compounds and a BCL-xL inhibitor control were prepared at 6× in standard growth media. The prepared drug treatments were then added to the cells resulting in a final concentration of 100-300 nM and a final volume of 3.0 mL per well. A control well of untreated cells was also included in the study. Each drug concentration was tested in singlet. Plates were incubated at 5% CO2, 37° C. for 24 hours in a tissue culture incubator.
After 24 hours, the adherent cells were lifted off tissue culture plates using 0.25% trypsin. Standard growth media was added to quench the trypsin and centrifuged for 5 minutes at 1500 rpm. Cell pellets were washed once with cold PBS and centrifuged for 5 minutes at 1500 rpm. Cells were then washed with 1 mL cold PBS and transferred to a 1.5 mL eppendorf tube. Cells were centrifuged for 10 minutes at ≥10,000 g at 4° C. in a benchtop mini-centrifuge. The entire supernatant was discarded and cells were resuspended thoroughly in 50 μL of RIPA lysis buffer, generated by the manufacturer's protocol (ProteinSimple, Cat. #CBS401: Lysis Kit—RIPA Buffer for Charge Assays). Lysates were incubated on ice for 30 minutes. Following incubation, lysates were spun in a benchtop mini-centrifuge for 15 minutes at full speed at 4° C. Supernatant was carefully transferred to a new eppendorf tube for downstream analysis.
Protein was quantified using a Pierce™ BCA Protein Assay Kit (ThermoFisher, cat #23225) following the manufacturer's instructions. A standard curve was prepared by adding 25 μL of each concentration of reference samples from a Pierce™ Bovine Serum Albumin Standard Pre-Diluted Set (ThermoFisher, cat #23208). Each reference sample was run in duplicate. Testing samples were prepared by diluting cell lysates 1:5 in UltraPure™ DNase/RNase-Free Distilled Water and tested in duplicates of 25 μL each. The BCA working reagent was prepared by addition of 50 parts of BCA Reagent A with 1 part of BCA Reagent B. For each testing well, 200 μL of BCA working reagent was added. The plate was incubated at 37° C. for 30 minutes. A SpectraMax M Series Multi-Mode Microplate Reader was used to measure the absorbance at 562 nm. A standard curve generated by the Pierce™ Bovine Serum Albumin Standard Pre-Diluted Set was used to normalize and calculate the BCA concentration of cell lysates. Only values that fell within the range of the standard curve were accepted for quantification.
The ProteinSimple 2-40 kDa Jess Separation Module was used to detect BCL-xL degradation in treated versus untreated lysates following the manufacturer's instructions (25-Capillary Cartridge, 8 pack, 2-40 kDa, cat #SM W012). […]

T1 sequence (Q07817 whole entry): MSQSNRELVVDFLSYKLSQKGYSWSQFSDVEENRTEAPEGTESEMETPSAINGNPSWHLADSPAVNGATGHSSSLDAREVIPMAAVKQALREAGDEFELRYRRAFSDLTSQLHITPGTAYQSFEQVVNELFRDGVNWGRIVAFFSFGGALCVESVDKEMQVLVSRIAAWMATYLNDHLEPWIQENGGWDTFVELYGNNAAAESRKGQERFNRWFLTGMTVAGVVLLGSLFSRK

Structure (SMILES) | IC50 [2] | remaining activity at 0.3 µM [3] | IC50 [1] | Emax [1] | Emax [2]
Cc1ncsc1-c1ccc(CNC(=O)[C@@H]2C[C@@H](O)CN2C(=O)[C@@H](NC(=O)CCCCCCCCCCC(=O)N2CCN(CC#Cc3ccc(OCCCc4sc(N5CCCc6c5nnc(Nc5nc7ccccc7s5)c6C)nc4C(=O)O)c(F)c3)CC2)C(C)(C)C)c(O)c1 [Example 45, 2-(3-(benzo[d]thiazol-2-ylamino)-4-methyl-6,7-dihydropyrido [2,3-c]pyridazin-8(5H)-yl)-5-(3-(2-fluoro-4-(3-(4-(12-(((S)-1-((2S,4R)-4-hydroxy-2-((2-hydroxy-4-(4-methylthiazol-5-yl)benzyl)carbamoyl)pyrrolidin-1-yl)-3,3-dimethyl-1-oxobutan-2-yl)amino)-12-oxododecanoyl)piperazin-1-yl)prop-1-yn-1-yl)phenoxy)propyl)thiazole-4-carboxylic acid] | 0.00627 µM | 40.1% | 0.0683 µM | 83% | 81.2%
Cc1ncsc1-c1ccc([C@H](C)NC(=O)[C@@H]2C[C@@H](O)CN2C(=O)[C@@H](NC(=O)CCC(=O)N2CCN(CCOC34CC5(C)CC(C)(CC(Cn6ncc(-c7ccc(N8CCCc9c8nnc(Nc8nc%10ccccc%10s8)c9C)nc7C(=O)O)c6C)(C5)C3)C4)CC2)C(C)(C)C)cc1 [Example 49, 6-(3-(benzo[d]thiazol-2-ylamino)-4-methyl-6,7-dihydropyrido [2,3-c]pyridazin-8(5H)-yl)-3-(1-(((1r,3s,5R,7S)-3-(2-(4-(4-(((S)-1-((2S,4R)-4-hydroxy-2-(((S)-1-(4-(4-methylthiazol-5-yl)phenyl)ethyl)carbamoyl)pyrrolidin-1-yl)-3,3-dimethyl-1-oxobutan-2-yl)amino)-4-oxobutanoyl)piperazin-1-yl)ethoxy)-5,7-dimethyladamantan-1-yl)methyl)-5-methyl-1H-pyrazol-4-yl)picolinic acid] | 0.0441 µM | > 90% | 0.311 µM | 92.1% | 89%
Cc1ncsc1-c1ccc(CNC(=O)[C@@H]2C[C@@H](O)CN2C(=O)[C@@H](NC(=O)C2(F)CC2)C(C)(C)C)c(OCC(=O)NCCCCCN2CCN(CC#Cc3ccc(OCCCc4sc(N5CCCc6c5nnc(Nc5nc7ccccc7s5)c6C)nc4C(=O)O)c(F)c3)CC2)c1 [Example 53, 2-(3-(benzo[d]thiazol-2-ylamino)-4-methyl-6,7-dihydropyrido [2,3-c]pyridazin-8(5H)-yl)-5-(3-(2-fluoro-4-(3-(4-(5-(2-(2-(((2S,4R)-1-((S)-2-(1-fluorocyclopropane-1-carboxamido)-3,3-dimethylbutanoyl)-4-hydroxypyrrolidine-2-carboxamido)methyl)-5-(4-methylthiazol-5-yl)phenoxy)acetamido)pentyl)piperazin-1-yl)prop-1-yn-1-yl)phenoxy)propyl)thiazole-4-carboxylic acid] | 0.00446 µM | 48.3% | 0.0334 µM | 97.9% | 79.3%

More lines, in order of falling IC50 [2], values ahead:

IC50 [2] | remaining activity at 0.3 µM [3] | Structure (SMILES) | IC50 [1] | Emax [1] | Emax [2]
0.0259 µM | 88% | Cc1ncsc1-c1ccc(CNC(=O)[C@@H]2C[C@@H](O)CN2C(=O)[C@@H](NC(=O)C2(F)CC2)C(C)(C)C)c(OCC(=O)N2CCN(CCOC34CC5(C)CC(C)(CC(Cn6ncc(-c7ccc(N8CCCc9c8nnc(Nc8nc%10ccccc%10s8)c9C)nc7C(=O)O)c6C)(C5)C3)C4)CC2)c1 [Example 50, 6-(3-(benzo[d]thiazol-2-ylamino)-4-methyl-6,7-dihydropyrido [2,3-c]pyridazin-8(5H)-yl)-3-(1-(((1r,3s,5R,7S)-3-(2-(4-(2-(2-(((2S,4R)-1-((S)-2-(1-fluorocyclopropane-1-carboxamido)-3,3-dimethylbutanoyl)-4-hydroxypyrrolidine-2-carboxamido)methyl)-5-(4-methylthiazol-5-yl)phenoxy)acetyl)piperazin-1-yl)ethoxy)-5,7-dimethyladamantan-1-yl)methyl)-5-methyl-1H-pyrazol-4-yl)picolinic acid] | 0.287 µM | 90.2% | 93.8%
0.00883 µM | 30.3% | Cc1ncsc1-c1ccc([C@H](C)NC(=O)[C@@H]2C[C@@H](O)CN2C(=O)[C@@H](NC(=O)C2CC3(C2)CC(C(=O)N2CCN(CC#Cc4ccc(OCCCc5sc(N6CCCc7c6nnc(Nc6nc8ccccc8s6)c7C)nc5C(=O)O)c(F)c4)CC2)C3)C(C)(C)C)cc1 (stereo partly drawn) [Example 41, 2-(3-(benzo[d]thiazol-2-ylamino)-4-methyl-6,7-dihydropyrido [2,3-c]pyridazin-8(5H)-yl)-5-(3-(2-fluoro-4-(3-(4-(6-(((S)-1-((2S,4R)-4-hydroxy-2-(((S)-1-(4-(4-methylthiazol-5-yl)phenyl)ethyl)carbamoyl)pyrrolidin-1-yl)-3,3-dimethyl-1-oxobutan-2-yl)carbamoyl)spiro[3.3]heptane-2-carbonyl)piperazin-1-yl)prop-1-yn-1-yl)phenoxy)propyl) thiazole-4-carboxylic acid] | 0.22 µM | 88.2% | 106%
0.00422 µM | 19.9% | Cc1ncsc1-c1ccc([C@H](C)NC(=O)[C@@H]2C[C@@H](O)CN2C(=O)[C@@H](NC(=O)c2ccc(C(=O)N3CCN(CC#Cc4ccc(OCCCc5sc(N6CCCc7c6nnc(Nc6nc8ccccc8s6)c7C)nc5C(=O)O)c(F)c4)CC3)cc2F)C(C)(C)C)cc1 [Example 43, 2-(3-(benzo[d]thiazol-2-ylamino)-4-methyl-6,7-dihydropyrido [2,3-c]pyridazin-8(5H)-yl)-5-(3-(2-fluoro-4-(3-(4-(3-fluoro-4-(((S)-1-((2S,4R)-4-hydroxy-2-(((S)-1-(4-(4-methylthiazol-5-yl)phenyl)ethyl)carbamoyl)pyrrolidin-1-yl)-3,3-dimethyl-1-oxobutan-2-yl)carbamoyl)benzoyl)piperazin-1-yl)prop-1-yn-1-yl)phenoxy)propyl)thiazole-4-carboxylic acid] | 0.0748 µM | 85.9% | 80.3%
0.00282 µM | 28.6% | Cc1ncsc1-c1ccc([C@H](C)NC(=O)[C@@H]2C[C@@H](O)CN2C(=O)[C@@H](NC(=O)CCCCCCCCN2CCN(CC#Cc3ccc(OCCCc4sc(N5CCCc6c5nnc(Nc5nc7ccccc7s5)c6C)nc4C(=O)O)c(F)c3)CC2)C(C)(C)C)cc1 [Example 52, 2-(3-(benzo[d]thiazol-2-ylamino)-4-methyl-6,7-dihydropyrido [2,3-c]pyridazin-8(5H)-yl)-5-(3-(2-fluoro-4-(3-(4-(9-(((S)-1-((2S,4R)-4-hydroxy-2-(((S)-1-(4-(4-methylthiazol-5-yl)phenyl)ethyl)carbamoyl)pyrrolidin-1-yl)-3,3-dimethyl-1-oxobutan-2-yl)amino)-9-oxononyl)piperazin-1-yl)prop-1-yn-1-yl)phenoxy)propyl)thiazole-4-carboxylic acid] | 0.00993 µM | 80.6% | 60.8%
